Data set [1] concerns HIV-1NL4-3. The data set can be described thus: HIV-1 replication assay (p24 […]) in PBMCs, CXCR4 tropic strain. It is filed as cell-based. Conditions: HIV-1NL4-3 MOI 0.1, 1.5 μM, 72 h. As to the method:
(§1) TZM-bl cells (also referred as JC53BL-13) expressing human CD4, CXCR4, and CCR5 in order to facilitate HIV-1 infection, which contain the firefly luciferase (F-Luc) gene under the control of HIV-1 long terminal repeat (LTR) promoter was used to determine inhibitory effect of the compounds on HIV-1 infection, as described previously with minor modifications. In brief, 1 × 10^4 cells were cultured in 96-well plates for 24 h and then treated with compounds at a final concentration of 3 μM (Figure 1A) or with 1:2 serially diluted compounds at concentrations ranging from 0 to 25 μM (dose-response assay; Figure 1B and Table 2). Without replacement of a culture medium, the cells were then infected with the HIV-1NL4-3 strain at a multiplicity of infection (MOI) of 1 to determine the exact inhibitory effect of compounds on a single round infection. After 48 h, the inhibitory effect of the compounds was determined using a Bright Glo luciferase assay kit (Promega). The infectivity data are presented as a percentage relative to the DMSO control (vehicle). The inhibitory effects of the compounds on viral replication were determined with some minor modifications, as described previously. In brief, 5 × 10^4 cells/ well of A3.01 cells were infected with HIV-1NL4-3 at an MOI of 0.1 with the spinoculation at 300 g for 2 h at 25 °C. PBMCs were pre-activated with phytohemagglutinin M (PHA-M) for 3 days. The pre-activated 4 × 10^5 of PBMCs were washed with fresh media to remove excess PHA-M and then infected with HIV-1NL4-3 or HIV-1AD8 as that of A3.01 infection. After infection, the infectious media were replaced with fresh media (supplemented with international 10 units (IU)/mL of IL-2 for PBMCs containing 1.5 μM of compounds. At 72 h after infection, the inhibitory effect of the compounds on viral replication was determined by measuring the amount of p24, an HIV capsid protein, using an HIV-1 p24 […]™ kit (PerkinElmer, Waltham, MA, USA). Cell viability was determined by using the resazurin-based PrestoBlue™ cell viability reagent (Thermo Fisher Scientific, Waltham, MA, USA) according to the manufacturer’s protocols.

For data set [2], the system named is HIV-1NL4-3. The data set can be described thus: HIV-1 infectivity assay in TZM-bl cells (F-Luc under HIV-1 LTR). It is filed as cell-based. Conditions: for inhibition at 3 µM / IC50: Human immunodeficiency virus 1, NL43, TZM-bl; for inhibition at 3 µM: 48 h, read-out: Inhibition of HIV-1 Infectivity (%), TZM-bl cells, 3 μM, HIV-1 NL4-3 at MOI of 1, 48 h; for Inhibition ratio of HIV-1 infectivity, dose response: HIV-1NL4-3, up to a concentration of 25 μM; for IC50: read-out: IC50 (inhibition of HIV-1 infection). The text has this:
TZM-bl cells (also referred as JC53BL-13) expressing human CD4, CXCR4, and CCR5 in order to facilitate HIV-1 infection, which contain the firefly luciferase (F-Luc) gene under the control of HIV-1 long terminal repeat (LTR) promoter was used to determine inhibitory effect of the compounds on HIV-1 infection, as described previously with minor modifications. […] Without replacement of a culture medium, the cells were then infected with the HIV-1NL4-3 strain at a multiplicity of infection (MOI) of 1 to determine the exact inhibitory effect of compounds on a single round infection. After 48 h, the inhibitory effect of the compounds was determined using a Bright Glo luciferase assay kit (Promega). The infectivity data are presented as a percentage relative to the DMSO control (vehicle). The inhibitory effects of the compounds on viral replication were determined with some minor modifications, as described previously. […] PBMCs were pre-activated with phytohemagglutinin M (PHA-M) for 3 days. The pre-activated 4 × 10^5 of PBMCs were washed with fresh media to remove excess PHA-M and then infected with HIV-1NL4-3 or HIV-1AD8 as that of A3.01 infection.

Data set [3] in a line: Cell viability (resazurin-based PrestoBlue) in parallel with infectivity assay. The conditions noted are these: human, TZM-bl cells; for viability at 48 h, 3 µM: with infection of HIV-1 NL4-3 at MOI of 1; for CC50 at 48 h: serial dilution starting from 100 μM, read-out: CC50 (concentration that reduces cell viability by 50%).
Data set [4] concerns HIV-1NL4-3. The data set is described as follows: HIV-1 replication assay (p24 […]) in A3.01 T cell line. It counts as cell-based. Conditions: A3.01 cells, HIV-1NL4-3 MOI 0.1, 1.5 μM, 72 h. How it is done:
as §1

For data set [5], the system named is Tat-mediated HIV-1 transcription. The data set can be described thus: microbe, parasite or virus in culture. It counts as cell-based. The conditions noted are these: for Inhibition of Tat-induced HIV-1 transcription, concentration response: 0 to 25 μM. As to the method:
bl-DTR (TZM-bl-derived dual Tat reporter) cells derived from TZM-bl cells by insertion of two doxycycline-inducible lentiviral vector-expressing flag-tagged tat and Renilla-luciferase (R-Luc) genes were used to determine simultaneously both activities of Tat-mediated HIV-1 transcription and general cellular transcription, as described previously. Determination of the inhibitory effect of the compounds on Tat-mediated transcription was performed as described previously. In brief, 1 × 10^4 of bl-DTR cells cultured in 96-well plates were treated with compounds at a final concentration of 3 μM (Figure 3C) or with 1:2 serially diluted compounds at concentrations ranging from 0 to 25 μM (Figure 4 and Table 3). Subsequently, doxycycline was treated at a final concentration of 50 ng/mL to induce Tat-mediated F-Luc and R-Luc. At 24 h after treatment, the activities of F-Luc and R-Luc were determined by using a Dual-Glo™ luciferase assay system (Promega, Madison, WI, USA) according to the manufacturer’s protocols. The data are presented as a percentage relative to the DMSO control (vehicle) in the presence of doxycycline, and the experiment was performed in triplicate.

For another data set, the system named is TZM-bl cells. The data set can be described thus: Cell viability (resazurin-based PrestoBlue) in parallel with infectivity assay. The conditions noted are these: 3 μM, with infection of HIV-1 NL4-3 at MOI of 1. On the technique in general: The colour change of resazurin is a common sign of viable cells or microbes.

As for `C=CCC1(C(=O)OC)Nc2cc(C)cc(C)c2C1=O` (centres unmarked) [Compound 6h, Methyl 2-allyl-4,6-dimethyl-3-oxindole-2-carboxylate], the melting point – broadly, the temperature, or range, at which the solid turns liquid – was 147 °C. In the data set with HIV-1NL4-3 [1], the “Inhibitory effect on viral replication (p24)” value (shortened to “Inhibitory effect”) is given as “no inhibition”. In addition, the inhibition (as a rule, the drop in the measured response relative to a control, in per cent) at 3 µM with HIV-1NL4-3 [2] was found to be 23.6 ± 4.46%. Moreover, in the data set on HIV-1NL4-3 [2] (TZM-bl cells), the “Inhibition ratio of HIV-1 infectivity, dose response” value (“Inhibition ratio” for short) is recorded as “did not show further increased inhibitory effect”. The viability – broadly, a read-out of living cells in per cent, often relative to untreated cells – at 48 h, 3 µM in data set [3] stood at 107 ± 4.73%. Further, in the data set on HIV-1NL4-3 [4], the “Inhibitory effect” value is “no inhibition”.

`CCCC1(C(=O)OC)Nc2cc(C)cc(C)c2C1=O` (centres unmarked) [Compound 6i, Methyl 4,6-dimethyl-3-oxo-2-propylindoline-2-carboxylate] yielded a melting point of 132 to 133 °C. In addition, the “Inhibitory effect” value in the data set on HIV-1NL4-3 [1] is on record as “no inhibition”. Moreover, in the data set on HIV-1NL4-3 [2], the inhibition at 3 µM was found to be 9.15 ± 0.96%. Also, the viability at 48 h, 3 µM in data set [3] was 99.4 ± 8.83%. For the same compound, the “Inhibitory effect” value in the data set with HIV-1NL4-3 [4] was “no inhibition”.

For `Cc1cn([C@H]2C[C@H](N=[N+]=[N-])[C@@H](CO)O2)c(=O)[nH]c1=O` [AZT, azidothymidine, reference compound], in the data set with HIV-1NL4-3 [2], the inhibition at 3 µM turned out to be 99.65 ± 0.048% and the IC50 (in general, the midpoint of a concentration-inhibition curve) was 0.079 ± 0.0237 µM. In data set [3], the viability at 48 h, 3 µM worked out at 94.8 ± 7.21% and the CC50 at 48 h is greater than 100 µM.

As to `CCCC1(C(=O)OC)Nc2ccc(OC)cc2C1=O` (centres unmarked) [Compound 6c, Methyl 5-methoxy-3-oxo-2-propylindoline-2-carboxylate], the melting point lay in the range of 117 to 118 °C. For the same compound, in the data set on HIV-1NL4-3 [2], the inhibition at 3 µM amounted to 16.2 ± 5.52%. Further, in data set [3], the viability at 48 h, 3 µM was determined as 92.7 ± 5.77%.

With `CCOC(=O)c1[nH]c2cccc(C)c2c1OC/C=C/Cl` [Compound 7a, ethyl (e)-3-((3-chloroallyl)oxy)-4-methyl-1h-indole-2-carboxylate], the melting point was determined as 226 °C. In addition, in data set [5] (bl-DTR cells), the “Inhibition of Tat-induced HIV-1 transcription, concentration response” value was “do not affect”. Also, in the data set with HIV-1NL4-3 [2], the inhibition at 3 µM is roughly 20%. In the data set with HIV-1NL4-3 [2] (TZM-bl cells), the “Inhibition ratio” value is roughly 50%. For the same compound, the viability at 48 h, 3 µM in data set [3] was determined as 117 ± 2.7%.

Compound `CCOC(=O)C1(C/C=C/Cl)Nc2cccc(C)c2C1=O` (centres unmarked) [Compound 6a, Ethyl (E)-2-(3-chloroallyl)-4-methyl-3-oxindole-2-carboxylate] gave a melting point greater than 300 °C. Besides, in the data set with HIV-1NL4-3 [1], the “Inhibitory effect” value is “no inhibition”. Also, the IC50 in data set [5] (Human immunodeficiency virus 1, 24 h, read-out: IC50 (inhibition of Tat-mediated HIV-1 transcription)) is 9.53 ± 0.48 µM. Further, in the data set on HIV-1NL4-3 [2], the inhibition at 3 µM is roughly 20% and the half-maximal inhibitory concentration (IC50) was found to be 13.7 ± 2.55 µM. Moreover, in data set [3], the viability at 48 h, 3 µM was determined as 106 ± 9.33% and the CC50 at 48 h was 87.4 ± 12.7 µM. Besides, in the data set with HIV-1NL4-3 [4], the “Inhibitory effect” value was “no inhibition”.

As to “Methyl (E)-2-(3-chloroallyl)-3-oxindole-2-carboxylate [Compound 6e]”, in the data set with HIV-1NL4-3 [2] (TZM-bl cells, 3 μM, HIV-1 NL4-3 at MOI of 1, 48 h), the “Inhibition of HIV-1 Infectivity (%)” value was 11.49 ± 5.66%. Besides, the “Cell Viability (%)” value in the data set on TZM-bl cells was found to be 95.66 ± 7.32%.

In turn, `COC(=O)C1(C/C=C/Cl)Nc2ccc(OC)cc2C1=O` (centres unmarked) [Compound 6b, Methyl (E)-2-(3-chloroallyl)-5-methoxy-3-oxindole-2-carboxylate] registered a melting point greater than 300 °C. The “Inhibitory effect” value in the data set with HIV-1NL4-3 [1] was “no inhibition”. Also, the inhibition at 3 µM in the data set with HIV-1NL4-3 [2] amounted to 0.55 ± 4.34%. For the same compound, the viability at 48 h, 3 µM in data set [3] amounted to 99.6 ± 14.2%. In addition, the “Inhibitory effect” value in the data set on HIV-1NL4-3 [4] is reported as “no inhibition”.

In the case of `CC(C)[C@]12O[C@H]1[C@@H]1O[C@]13[C@]1(O[C@H]1C[C@H]1C4=C(CC[C@@]13C)C(=O)OC4)[C@@H]2O` [triptolide, reference compound], in data set [5] (bl-DTR cells, 3 μM, doxycycline 50 ng/mL, 24 h), the “Tat-induced transcriptional activity (F-Luc)” value is given as “specific inhibition”.

`COC(=O)c1[nH]c2ccc(OC)cc2c1OC/C=C/Cl` [Compound 7b, methyl (e)-3-((3-chloroallyl)oxy)-5-methoxy-1h-indole-2-carboxylate]: the melting point was greater than 300 °C. For the same compound, the “Inhibition of Tat-induced HIV-1 transcription, concentration response” value in data set [5] (bl-DTR cells) is recorded as “do not affect”. In the data set with HIV-1NL4-3 [2], the inhibition at 3 µM is roughly 20%. In addition, the “Inhibition ratio” value with HIV-1NL4-3 [2] (TZM-bl cells) is roughly 50%. The viability at 48 h, 3 µM in data set [3] came out at 110 ± 4.96%.
